{
  "source": "patent US20250115595A1",
  "about": "“INHIBITORS OF HYPOXIA-INDUCIBLE FACTORS” (The Johns Hopkins University, priority 2021, published 2025)",
  "key": {"C57BL/6 mice [1]": {"tested_on": "C57BL/6 mice", "assay": "Retinal safety after intraocular injection (ERG, histology, RGC count)", "assay_type": "in vivo, mouse", "method": "To reduce the risk of systemic side effects while optimizing the delivery of drugs to retinal tissue, therapies for ocular vascular disease are often administered by intravitreal injection. Therefore, it was assessed whether […] causes retinal toxicity following intraocular administration. To this end, ERGs up to 5 weeks were examined following a single intraocular injection of increasing doses (70, 140, 210, and 350 ng) of 32-134D.\nTo assess whether a higher dose of 32-134D could facilitate less frequent administration, the safety of higher doses of intraocular administration of 32-134D was assessed. To this end, ERGs up to 2 weeks following a single intraocular injection of high doses (500 and 1,000 ng) of 32-134D were examined.\n(§1) Intraocular injections: Intravitreal injections were performed with a PLI-100A Pico-liter Microinjector (Warner Instruments, Harvard Bioscience) using pulled-glass micropipettes. Each micropipette was calibrated to deliver a 1 μl volume on depression of a foot switch. The mice were anesthetized with a ketamine (100 mg/kg) and xylazine (5 mg/kg) mixture, and under a dissecting microscope, the sharpened tip of the micropipette was passed through the sclera just posterior to the limbus into the vitreous cavity and the foot switch was depressed, which caused fluid to penetrate into the vitreous space. Test compound was injected into the vitreous cavity in OIR and STZ mice for vascular permeability test, retinal vasculature and lysates for WB and qPCR analysis.\nFlash scotopic ERGs: All procedures were performed under dim red light. Mice were dark adapted overnight, anesthetized with ketamine (50 mg/kg) and xylazine (5 mg/kg) and pupils were dilated with a topical drop of tropicamide (1%). Scotopic ERG responses were measured using the Celeris ERG stimulator (Diagnosys, Lowell, MA) at flash intensities of 0.025, 0.25, 2.5, 7.96, and 79.06 cd/s/m2. ERGs were measured simultaneously from both eyes with a ground electrode placed into the forehead between the eyes and a reference electrode into the hip."}, "C57BL/6 mice [2]": {"tested_on": "C57BL/6 mice", "assay": "Laser CNV model, intravitreal dosing", "assay_type": "in vivo, mouse", "conditions": "single IVT injection 70 ng on day 3, day 7", "method": "To evaluate the efficacy of 32-134D following intraocular administration, the laser CNV model for neovascular (wet) age-related macular degeneration was used (FIG. 25A). C57BL/6 mice were treated with laser on day 0. On day 3, mice were treated with a single IVT injection with 32-134D (1 μl of 14 or 70 ng/μl solution) or with vehicle control. On day 7, mice were euthanized and choroidal flat mounts were stained with isolectin B4 to examine the area of CNV.\nas §1"}, "Hepa1-6 HCC tumors": {"tested_on": "Hepa1-6 HCC tumors", "assay": "Hepa1-6 tumor growth in syngeneic C57L mice", "assay_type": "in vivo, mouse", "conditions": "32-134D 40 mg/kg/d intraperitoneal", "method": "To test whether 32-134D inhibits HCC growth in an immunocompetent mouse model, Hepa1-6 HCC cells were injected into the flank of syngeneic C57L mice (Darlington G J et al., J Natl Cancer Inst. 1980; 64(4):809-819). When tumors became palpable (treatment day 1), mice received daily intraperitoneal injections of 32-134D (40 mg/kg/d) versus vehicle control, or anti-Pd1 antibody versus IgG2a isotype control ([…] on days 1, 4, 7, 10, and 16), or both 32-134D and anti-Pd1. Tumors grew very rapidly in all mice treated with vehicle or IgG2a, necessitating euthanasia on or before day 24 (FIG. 9). Tumors regressed in 5 out of 12 mice treated with anti-Pd1, but two tumors recurred after the last antibody treatment (on day 16) for a tumor eradication rate of only 25%. […] Thus, addition of 32-134D increased the percentage of mice with a durable complete response to anti-Pd1 immune checkpoint blockade from 25% to 67%.\nProtocols were approved by the Johns Hopkins University Animal Care and Use Committee and used in accordance with the NIH Guide for the Care and Use of Laboratory Animals (National Research Council, 2011). Female nude mice (NCI Athymic NCr-nu/nu) and male C57L/J mice were purchased from Charles River and The Jackson Laboratory, respectively. Hep3B (8×106) and Hepa1-6 (1×107) cells were implanted subcutaneously in 6- to 8-week-old mice, and tumor volume was calculated: V=abc×0.52. […]"}, "OIR mice": {"tested_on": "OIR mice", "assay": "OIR mouse model, intraocular dosing", "assay_type": "in vivo", "method": "The efficacy of 32-134D following intraocular administration with 70 ng, as well as a lower dose (14 ng), in OIR mice at P12 (J. Zhang et al., J Clin Invest 131 (2021)) was determined.\nThe efficacy of 32-134D following IVT administration was also evaluated in the OIR model. At P14, pups were treated with a single intravitreal injection with 32-134D (14 or 70 ng) in 1 ul or with vehicle (DMSO) control. At P17, retinal flat mounts were stained with isolectin-B4 to examine the development of retinal neovascularization.\nas §1\nOIR mouse model: OIR experiments were performed as previously described (M. Rodrigues et al., 2013, Diabetes 62, 3863-3873). Briefly, C57BL/6 mice were placed in 75% O2 on P7. On P12, the mice were returned to room air and administered either by IP injection (digoxin and test compound) or by intravitreal injection. Mice with body weight less than 6 g at P17 were excluded from analysis. The data were collected from both males and females and the results combined, as there was no apparent difference between sexes. Representative images for selected time points from a minimum of three independent experiments are shown. Data from 3-8 pups were obtained at each time point."}},
  "data": [
    {"compound": "Brc1ccc2c(-c3csc(-c4c[nH]c5c(Br)cccc45)n3)c[nH]c2c1", "note": "[Compound 32-134D, 4-(6-bromo-1H-indol-3-yl)-2-(7-bromo-1H-indol-3-yl)thiazole]", "values": [
      {"measurement": "retinal histology including GCL", "setting": "C57BL/6 mice [1]; 35 days after intraocular injection of up to 350 ng", "result": "normal histology"},
      {"measurement": "number of RGCs on retinal flat mounts", "setting": "C57BL/6 mice [1]; highest doses tested (210 or 350 ng), 35 days", "result": "unaffected"},
      {"measurement": "ERG evidence of retina toxicity", "setting": "C57BL/6 mice [1]; single intraocular injection 70, 140, 210, 350 ng, up to 5 weeks", "result": "no ERG evidence of retina toxicity"},
      {"measurement": "ERG evidence of retina toxicity", "setting": "C57BL/6 mice [1]; single intraocular injection 500 and 1,000 ng, up to 2 weeks", "result": "no ERG evidence of retina toxicity"},
      {"measurement": "CNV area", "setting": "C57BL/6 mice [2]", "result": "significant decrease"},
      {"measurement": "mice with tumor eradication", "setting": "Hepa1-6 HCC tumors", "result": "4 of 12"},
      {"measurement": "tumor growth", "setting": "Hepa1-6 HCC tumors", "result": "marked inhibition of tumor growth in all mice"},
      {"measurement": "HIF-1α and HIF-2α protein accumulation in retina", "setting": "OIR mice; single 14-ng intraocular injection, P13 and P14", "result": "marked reduction"},
      {"measurement": "expression of mRNAs encoding VEGF, KDR and other HIF-regulated angiogenic mediators", "setting": "OIR mice; single intraocular injection at P12, P17", "result": "decreased expression"},
      {"measurement": "retinal neovascularization", "setting": "OIR mice; single intravitreal injection 14 or 70 ng at P14, P17", "result": "significant decrease"}
    ]}
  ]
}
